Assay results: ChEMBL document CHEMBL1201862, “PubChem BioAssay data set” (2004)
Calls of active or inactive are those of the source.

Key:
[1] = Luminescence Cell-Based Dose Confirmation HTS to Identify Activators of 5'UTR Stem-Loop Driven Alpha-Synuclein mRNA Translation in H4 Neuroglioblastoma Cells. [Related pubchem assays: 1829 (Project Summary), 1814 (Primary HTS)]; assay type: functional
[2] = Luminescence Cell-Based Dose Retest to Confirm Inhibitors of Cancer Stem Cells. [Related pubchem assays (depositor defined):AID2717, AID2721]; assay type: functional; conditions: Homo sapiens
[3] = Luminescence Cell-Based Dose Response HTS to Identify Activators of Luciferase Translation or Activity in H4 […] Cells. [Related pubchem assays: 1829 (Project Summary), 1814 (Primary HTS)]; assay type: functional
[4] = HEK-293T viability loss after treatment – luminescence, T-cell screen hits, cytotoxicity control for TCR NF-kB inhibitor project, dose response (AID 489026); assay type: functional, cell-based;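 also: cells exposed to compound about 14 hours before the viability readout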
[5] = system: H4; test: Luminescence Cell-Based Dose Response HTS to Identify Activators of 5'UTR Stem-Loop Driven Prion Protein mRNA Translation in H4 Neuroglioblastoma Cells. [Related pubchem assays: 1829 (Project Summary), 1814 (Primary HTS)]; assay type: functional; conditions: Homo sapiens
[6] = microbe, parasite or virus in culture; assay type: functional; conditions: Mycobacterium tuberculosis
[7] = biological target: T1, Carboxy-terminal domain RNA polymerase II polypeptide A small phosphatase 1 (Homo sapiens, UniProt Q9GZU7); test: CTDSP1 inhibitors, concentration-response, biochemical, absorbance readout, ultra-high-throughput screen actives (AID 540297); assay type: functional
T1 sequence (Q9GZU7 whole entry): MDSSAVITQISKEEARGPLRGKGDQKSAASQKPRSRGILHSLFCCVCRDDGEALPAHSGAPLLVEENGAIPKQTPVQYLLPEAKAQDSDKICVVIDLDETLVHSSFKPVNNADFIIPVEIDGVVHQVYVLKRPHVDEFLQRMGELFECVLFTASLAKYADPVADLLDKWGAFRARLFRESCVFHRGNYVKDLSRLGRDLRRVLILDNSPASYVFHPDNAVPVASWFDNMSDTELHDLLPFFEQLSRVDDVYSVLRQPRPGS

[8] = biological target: T2, Short transient receptor potential channel 4 (Mus musculus, UniProt Q9QUQ5); test: calcium entry via TRPC4 opening agents – cell-based, HEK293 TRPC4/mu-opioid, Fluo-4 calcium, dose response (AID 434937); assay type: functional
T2 sequence (Q9QUQ5 whole entry): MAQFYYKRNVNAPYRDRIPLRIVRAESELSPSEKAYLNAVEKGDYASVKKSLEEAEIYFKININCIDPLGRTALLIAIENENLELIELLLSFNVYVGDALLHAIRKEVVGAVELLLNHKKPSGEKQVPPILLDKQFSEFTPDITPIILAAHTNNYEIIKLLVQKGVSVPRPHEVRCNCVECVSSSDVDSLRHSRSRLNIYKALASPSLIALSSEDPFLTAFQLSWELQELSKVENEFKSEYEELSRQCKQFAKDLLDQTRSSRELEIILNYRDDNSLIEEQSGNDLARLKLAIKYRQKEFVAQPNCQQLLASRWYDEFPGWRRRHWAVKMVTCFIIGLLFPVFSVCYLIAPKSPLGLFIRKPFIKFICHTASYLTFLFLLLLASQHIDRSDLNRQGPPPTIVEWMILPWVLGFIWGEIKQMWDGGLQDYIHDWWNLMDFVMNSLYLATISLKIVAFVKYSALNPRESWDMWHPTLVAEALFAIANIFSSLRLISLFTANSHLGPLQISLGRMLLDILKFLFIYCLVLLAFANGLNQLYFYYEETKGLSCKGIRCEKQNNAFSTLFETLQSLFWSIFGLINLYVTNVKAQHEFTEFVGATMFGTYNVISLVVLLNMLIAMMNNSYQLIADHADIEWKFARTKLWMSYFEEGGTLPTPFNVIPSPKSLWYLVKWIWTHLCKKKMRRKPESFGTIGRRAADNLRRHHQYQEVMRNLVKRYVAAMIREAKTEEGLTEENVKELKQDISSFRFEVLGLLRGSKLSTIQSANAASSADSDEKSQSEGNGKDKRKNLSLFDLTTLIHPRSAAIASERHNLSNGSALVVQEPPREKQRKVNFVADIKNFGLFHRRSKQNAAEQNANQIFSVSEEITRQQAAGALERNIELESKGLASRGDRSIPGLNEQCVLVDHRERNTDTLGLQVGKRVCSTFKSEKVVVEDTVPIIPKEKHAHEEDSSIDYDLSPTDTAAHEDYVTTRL

[9] = biological target: T3, Coagulation factor XII (Homo sapiens, UniProt P00748); assay type: functional;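 also: activated factor XIIa alpha cleaving a fluorogenic AMC peptide substrate; inhibitor potency from loss of enzyme activity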
T3 sequence (P00748 whole entry): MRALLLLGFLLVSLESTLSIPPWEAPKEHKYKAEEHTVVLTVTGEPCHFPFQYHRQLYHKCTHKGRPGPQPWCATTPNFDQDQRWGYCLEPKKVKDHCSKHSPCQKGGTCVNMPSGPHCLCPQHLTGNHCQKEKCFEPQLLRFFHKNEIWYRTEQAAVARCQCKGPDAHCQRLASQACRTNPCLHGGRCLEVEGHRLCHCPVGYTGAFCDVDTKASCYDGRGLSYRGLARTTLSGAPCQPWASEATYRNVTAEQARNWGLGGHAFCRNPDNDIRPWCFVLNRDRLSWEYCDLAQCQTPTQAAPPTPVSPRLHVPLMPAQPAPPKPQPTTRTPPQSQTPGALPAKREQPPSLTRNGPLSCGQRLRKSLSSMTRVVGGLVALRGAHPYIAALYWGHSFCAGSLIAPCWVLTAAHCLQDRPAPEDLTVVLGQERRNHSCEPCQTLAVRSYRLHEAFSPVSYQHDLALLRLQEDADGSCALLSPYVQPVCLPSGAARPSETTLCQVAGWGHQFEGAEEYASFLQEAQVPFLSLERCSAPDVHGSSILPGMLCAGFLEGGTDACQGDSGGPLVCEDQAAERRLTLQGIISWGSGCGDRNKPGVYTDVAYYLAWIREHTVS

[10] = biological target: T4, Corticotropin-releasing factor receptor 2/Corticotropin-releasing factor-binding protein (Homo sapiens, UniProt P24387+Q13324); test: Dose Response confirmation of uHTS hits for small molecule antagonists of the CRF-binding protein and CRF-R2 receptor complex.; assay type: functional; conditions: read-out: IC50_Mean
T4 sequence (Q13324 whole entry): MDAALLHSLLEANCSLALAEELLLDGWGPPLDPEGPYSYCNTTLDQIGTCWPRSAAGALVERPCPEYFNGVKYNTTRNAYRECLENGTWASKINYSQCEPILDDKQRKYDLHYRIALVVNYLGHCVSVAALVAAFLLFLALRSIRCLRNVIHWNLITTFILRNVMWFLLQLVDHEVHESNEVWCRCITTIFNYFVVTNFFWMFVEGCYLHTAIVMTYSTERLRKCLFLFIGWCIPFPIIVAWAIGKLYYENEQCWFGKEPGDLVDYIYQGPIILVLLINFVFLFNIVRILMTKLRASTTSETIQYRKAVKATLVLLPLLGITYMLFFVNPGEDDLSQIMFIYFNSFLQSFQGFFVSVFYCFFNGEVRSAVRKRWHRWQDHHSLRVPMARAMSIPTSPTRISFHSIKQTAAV
T4 sequence (P24387 whole entry): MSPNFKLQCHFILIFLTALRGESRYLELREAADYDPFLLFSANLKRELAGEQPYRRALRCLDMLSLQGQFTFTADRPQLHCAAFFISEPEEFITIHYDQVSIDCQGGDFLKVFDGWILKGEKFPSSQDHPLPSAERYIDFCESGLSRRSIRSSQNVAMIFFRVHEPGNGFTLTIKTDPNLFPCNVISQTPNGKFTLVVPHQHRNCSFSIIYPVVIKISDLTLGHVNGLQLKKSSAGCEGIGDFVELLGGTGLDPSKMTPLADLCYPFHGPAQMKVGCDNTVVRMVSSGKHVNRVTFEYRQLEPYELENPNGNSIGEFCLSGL

[11] = blockers of CRF-binding protein–CRF-R2 complex – cell-based, uHTS hits, 384-well, dose response (AID 651639); assay type: functional, Homo sapiens; conditions: read-out: IC50_Mean
[12] = biological target: T4, Corticotropin-releasing factor receptor 2/Corticotropin-releasing factor-binding protein; test: activators of CRF receptor 2 with binding protein – uHTS hits, confirmation (AID 602473); assay type: functional; conditions: read-out: EC50_Mean
[13] = system: Vero; test: mammalian cell viability reduction – secondary assay, cytotoxicity control for West Nile virus antiviral project, dose response (AID 1650); assay type: functional; conditions: Chlorocebus sabaeus
[14] = A cytotoxicity screen of small molecule inhibitors of the PhoP region in Salmonella typhi identified in the primary screen. [Related pubchem assays: 1850, 1864, 1985 ]; assay type: functional
[15] = cells; assay type: functional, cell-based
[16] = system: BJ; test: cells; assay type: functional, cell-based; conditions: Homo sapiens
[17] = system: BJ; test: BJ-TERT-LT-ST fibroblast viability loss – cell-based, RAS-independent, luminescence, dose response (AID 1935); assay type: functional; conditions: Homo sapiens;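 also: BJ fibroblasts immortalized with TERT plus LT and ST oncogenes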
[18] = DRD fibroblast viability loss – cell-based, non-viral oncogenic, luminescence, dose response (AID 1934); assay type: functional; conditions: Homo sapiens
[19] = system: BJ; test: BJ-TERT fibroblast viability loss – cell-based, RAS-independent, luminescence, dose response (AID 1933); assay type: functional; conditions: Homo sapiens
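For AC50 in this document: cells exposed to compound for roughly 70 hours or longer before luminescence read.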

SMILES: O=C(c1ccccc1)c1nn(-c2ccc(Cl)cc2)c(=O)cc1C(F)(F)F
- EC50 [1]: 0.222 µM (active)
- AC50 [2]: 4.21 µM (active)
- EC50 [3]: > 120 µM (not active)
- IC50 [4]: > 80 µM (inactive)
- EC50 [5]: > 120 µM (not active)
- CC50 [6]: 15.7 µM (active)

SMILES: COCCCN(C(=O)c1cc(-c2ccco2)nc2ccccc12)c1c(N)n(Cc2ccccc2)c(=O)[nH]c1=O
- IC50 [7]: 12 µM (active)

SMILES: COc1ccc2c3c1OC1C(O)C=CC4C(C2)[N+](C)(C)CCC341 (centres undefined)
- IC50 [7]: 7 µM (active)

SMILES: Fc1ccc(-n2cc(CNCCc3cccnc3)c(-c3ccccc3Cl)n2)cc1
- EC50 [8]: 5.96 µM (active)

SMILES: Cc1ccc(C)c(NC(=O)CN(C)C(=O)CCN2C(=O)c3ccccc3C2=O)c1
- IC50 [9]: > 50 µM (inactive)

SMILES: Brc1c(C[n+]2ccccc2)nc2ccccn12
- IC50 [9]: > 50 µM (inactive)

SMILES: Cc1nc2ccccc2n1CC(O)COC1CCCCC1 (centres undefined)
- IC50 [10]: 41.8 µM (active)
- IC50 [11]: 8.02 µM (active)
- EC50 [12]: > 53 µM (inactive)

SMILES: O=S(=O)(CC(CN1CCCCC1)N1CCCCC1)c1ccccc1 (centres undefined)
- CC50 [13]: 14.4 µM (active)

SMILES: COc1cccc(NC2=NC(N)=NC3(CCCCC3)N2)c1
- EC50 [14]: > 50 µM (active)

SMILES: CC(C)c1ccc(N(C(=O)c2snc(C(N)=O)c2N)C(C(=O)NC2CCCC2)c2ccncc2)cc1 (centres undefined)
- EC50 [15]: > 350 µM (not active)

SMILES: COC(=O)c1cc(OC)c(OC)cc1NC(=O)c1c(-c2ccccc2Cl)noc1C
- IC50 [10]: < 0.368 µM (active)
- IC50 [11]: > 20 µM (inactive)
- EC50 [12]: > 53 µM (inactive)

SMILES: CC(CCc1ccco1)NC(=O)c1cccc2c1C(=O)N(C1CCCCC1)C2 (centres undefined)
- IC50 [10]: < 0.368 µM (active)
- IC50 [11]: > 20 µM (inactive)
- EC50 [12]: > 53 µM (inactive)

SMILES: O=C(c1ccccc1-c1ccccc1)N1CCN(c2ccccn2)CC1
- EC50 [16]: 19.9 µM (active)
- EC50 [17]: 13.9 µM (inconclusive)
- EC50 [18]: 11.4 µM (active)
- IC50 [4]: > 80 µM (inactive)
- EC50 [19]: 9.85 µM (active)

SMILES: COc1ccc(C(CNC(=O)COc2ccccc2OC)N(C)C)cc1OC (centres undefined)
- EC50 [8]: 1.19 µM (active)
